In publication PMC5404542, “In Vitro and In Vivo Antifungal Profile of a Novel and Long-Acting Inhaled Azole, PC945, on Aspergillus fumigatus Infection” (Antimicrobial Agents and Chemotherapy, 2017):
≈ marks a conversion by molar mass, not a printed value. Where “and” joins values, the source holds several entries; their conditions need not be identical. Identical values can stand only once. Like-named read-outs stand apart in the source and are kept apart here.

What was measured:
A. fumigatus ATCC 204305 = experiment: MIC with and without BSA supplementation, quality control strain; details: Aspergillus fumigatus
Protocol: (§1) Conidia were added across the plate to a final concentration of 1 × 10^5 ml^−1. […] Determination of antifungal activity against 50 A. fumigatus clinical isolates from St. Louis Hospital (Paris, France) was performed with 96-well plates, using the modified EUCAST method in the presence of 0.5% BSA as described above. Antifungal susceptibility testing of 46 A. fumigatus isolates (obtained from the NW England Mycology Reference Centre) was performed by Evotec UK Ltd. (Manchester, United Kingdom) according to EUCAST guidelines.

[1] = system: Rhizopus oryzae (ATCC 11145); experiment: MIC, CLSI; type: cell-based
[2] = system: Aspergillus flavus (ATCC 204304); experiment: MIC, CLSI; type: cell-based; details: ATCC204304
[3] = system: Aspergillus flavus (AFL8, NRRC3357); experiment: MIC, EUCAST; type: cell-based
[4] = system: Candida albicans (20240.047, ATCC 10231); experiment: MIC, CLSI; type: cell-based; details: ATCC10231, read-out: MIC (the MIC given is the MIC50)
[5] = system: AR Candida albicans (20183.073, 20186.025); experiment: MIC, CLSI; type: cell-based; details: read-out: MIC (the MIC given is the MIC50)
[6] = system: 96 clinically isolated A. fumigatus strains; experiment: MIC against 96 clinically isolated strains (EUCAST, visual)
Protocol: as §1

[7] = system: Trichophyton rubrum (ATCC 10218); experiment: MIC, CLSI; type: cell-based; details: ATCC10218, 1 strain
A. fumigatus (NCPF2010) = experiment: A. fumigatus cell-based ergosterol assay; parameters: species or system Aspergillus fumigatus; details: Aspergillus fumigatus; NCPF2010, 24 h, normalized by crystal violet; read-out: IC50, inhibition of ergosterol production
Protocol: After incubation for 24 h at 35°C, medium was removed from all wells and replaced with reaction buffer (Amplex red cholesterol assay kit; Thermo Fisher) and Amplex red solution. Plates were incubated for 30 min at 37°C, protected from light, after which fluorescence was quantified using a spectrophotometer. Medium was removed from all wells and replaced with crystal violet solution (1% [vol/vol]), and plates were incubated at room temperature on a shaker for 30 min. Plates were washed three times with phosphate-buffered saline (PBS), and sodium dodecyl sulfate solution (0.1% [vol/vol]) was added across the plate to lyse the cells. After incubation at room temperature for 1 h, the absorbance was measured by determining the OD590 by use of a spectrophotometer.

[8] = system: Cryptococcus neoformans (ATCC 24067); experiment: MIC, CLSI; type: cell-based; details: Cryptococcus neoformans, ATCC24067
[9] = system: A. fumigatus hyphae (NCPF2010)
Protocol: (§2) The persistence of action of test agents was calculated for A. fumigatus hyphae (NCPF2010). […] The plates were incubated for exactly 20 min at 35°C and 5% CO2. After the incubation time had elapsed, all wells on the designated washout plate were aspirated, and growth medium (100 μl/well) was added across the plate. […] Resazurin (0.04%; diluted in growth medium) was added to all wells of both nonwashout and washout plates (5 μl/well) to give a final concentration of 0.002% resazurin. The plates were incubated at 35°C and 5% CO2 for 16 h. […] The percent inhibition for each well was calculated, and the IC50 was calculated from the concentration-response curve generated for each test compound by use of a four-parameter logistic equation (Dotmatics, Bishops Stortford, United Kingdom).

[10] = system: Cladosporium argillaceum (ATCC 38013); experiment: MIC, CLSI; type: cell-based; details: Rhizocladosporium argillaceum, ATCC38013, 1 strain
[11] = system: Candida glabrata (ATCC 36583, R363); experiment: MIC, CLSI; type: cell-based; details: Nakaseomyces glabratus, ATCC36583, read-out: MIC (the MIC given is the MIC50)
[12] = system: Aspergillus carbonarius (ATCC 8740); experiment: MIC, CLSI; type: cell-based; details: ATCC8740
[13] = system: Aspergillus terreus (AT49, AT7130); experiment: MIC, EUCAST; type: cell-based
[14] = system: Mucor circinelloides (ATCC 8542); experiment: MIC, CLSI; type: cell-based; details: ATCC8542, 1 strain
[15] = system: Penicillium citrinum (ATCC 9849); experiment: MIC, CLSI; type: cell-based; details: ATCC9849, 1 strain
[16] = system: Gibberella zeae (Fusarium graminearum) (ATCC 16106); experiment: microbe, parasite or virus in culture; type: cell-based; details: ATCC16106
[17] = system: Candida krusei (ATCC 6258); experiment: MIC, CLSI; type: cell-based; details: Pichia kudriavzevii, ATCC6258
[18] = system: Penicillium chrysogenum (ATCC 9480); experiment: MIC, CLSI; type: cell-based; details: ATCC9480, 1 strain
[19] = system: Rhizomucor pusillus (ATCC 16458); experiment: MIC, CLSI; type: cell-based; details: ATCC16458, 1 strain
[20] = system: Aureobasidium pullulans (ATCC 9348); experiment: MIC, CLSI; type: cell-based; details: ATCC9348, 1 strain
[21] = system: Aspergillus niger (ATCC 1015); experiment: MIC, EUCAST; type: cell-based; details: ATCC1015
[22] = system: Chaetomium globosum (ATCC 44699); experiment: MIC, CLSI; type: cell-based; details: ATCC44699, 1 strain
[23] = system: BEAS2B cells infected with A. fumigatus; experiment: Persistence of action on bronchial epithelial cells (galactomannan in supernatant); type: cell-based, Aspergillus fumigatus; details: for IC50: Aspergillus fumigatus, BEAS-2B
Protocol: The persistence of action of test agents was evaluated on immortalized bronchial epithelial cells (BEAS2B cells). […] Test and reference articles or undiluted DMSO (as vehicle) (0.5 μl/well) was added to the appropriate wells of the washout plate to give a final concentration of 0.5% DMSO. The plate was incubated for exactly 1 h at 37°C and 5% CO2. After the incubation time had elapsed, all wells on the washout plate were aspirated, and growth medium (100 μl/well) was added across the plate. After 24 h of incubation at 37°C, test and reference articles or undiluted DMSO (as vehicle) (0.5 μl/well) was added to the appropriate wells of the nonwashout plate to give a final concentration of 0.5% DMSO. The plate was incubated for exactly 1 h at 37°C and 5% CO2, after which A. fumigatus conidia were added across both plates to a final concentration of 1 × 10^3/well.

[24] = system: A. fumigatus hyphae (NCPF2010); experiment: Persistence of action on A. fumigatus hyphae (resazurin-based microtiter assay); details: Aspergillus fumigatus, NCPF2010, 16 h, read-out: Hyphae IC50, No washout
Protocol: as §2

[25] = system: Lichtheimia corymbifera (ATCC 7909); experiment: MIC, CLSI; type: cell-based; details: ATCC7909, 1 strain
[26] = Precipitation in EUCAST medium; type: physicochemical

Work on C[C@@H]1[C@H](O)[C@@H](C)/C=C/C=C/C=C/C=C/C=C/C=C/C=C/[C@H](O[C@@H]2O[C@H](C)[C@@H](O)[C@H](N)[C@@H]2O)C[C@@H]2O[C@](O)(C[C@@H](O)C[C@@H](O)[C@H](O)CC[C@@H](O)C[C@@H](O)CC(=O)O[C@H]1C)C[C@H](O)[C@H]2C(=O)O [Amphotericin B, amphotericin B] yielded an MIC (A. fumigatus ATCC 204305; ATCC204305, with BSA) of 2 µg/mL (≈ 2.16 µM) and an MIC (A. fumigatus ATCC 204305; ATCC204305, without BSA) of 1 µg/mL (≈ 1.08 µM).
In the case of CCC(C)n1ncn(-c2ccc(N3CCN(c4ccc(OCC5COC(Cn6cncn6)(c6ccc(Cl)cc6Cl)O5)cc4)CC3)cc2)c1=O (stereo not shown) [Itraconazole, itraconazole], the MIC (A. fumigatus ATCC 204305; ATCC204305, with BSA) is reported as 0.125 µg/mL (≈ 0.177 µM) and the MIC (A. fumigatus ATCC 204305; ATCC204305, without BSA) is reported as 0.25 µg/mL (≈ 0.354 µM).
With C[C@@H](c1ncncc1F)[C@](O)(Cn1cncn1)c1ccc(F)cc1F [Voriconazole, voriconazole] the MIC ([1]; 1 strain) was >8 µg/mL, the MIC ([1]; Rhizopus arrhizus, ATCC11145, 1 strain, read-out: MIC) was > 8 µg/mL and the MIC [2] was 2 µg/mL (≈ 5.73 µM). It also gave an MIC [3] of 0.63 µg/mL (≈ 1.8 µM), an MIC50 [4] of 0.14 µg/mL (≈ 0.401 µM) and an MIC50 [5] of 10 µg/mL (≈ 28.6 µM). For the same compound, the “MIC, Range” value ([6]; 96 clinical isolates, determined visually) was 0.064 to 4 µg/mL, the MIC50 ([6]; Aspergillus fumigatus) was 0.5 µg/mL (≈ 1.43 µM) and the MIC90 ([6]; Aspergillus fumigatus) was 1 µg/mL (≈ 2.86 µM). For the same compound, the MIC ([6]; Aspergillus fumigatus, read-out: MIC, Geometric mean) was 0.42 µg/mL (≈ 1.2 µM), the MIC ([6]; Aspergillus fumigatus, read-out: MIC, Mode) was 0.5 µg/mL (≈ 1.43 µM) and the MIC [7] was 0.063 µg/mL (≈ 0.18 µM). For the same compound, the IC50 (A. fumigatus (NCPF2010)) was 0.067 µg/mL and 190 nM, the MIC [8] was 0.016 µg/mL (≈ 0.0458 µM) and the IC50 [9] was > 1 µg/mL. The MIC [10] was 0.5 µg/mL (≈ 1.43 µM), the MIC (A. fumigatus ATCC 204305; ATCC204305, with BSA) was 1 to 2 µg/mL (≈ 2.86 to 5.73 µM) and the MIC (A. fumigatus ATCC 204305; ATCC204305, without BSA) was 2 µg/mL (≈ 5.73 µM). It also gave an MIC50 [11] of 8.13 µg/mL (≈ 23.3 µM), an MIC [12] of 0.5 µg/mL (≈ 1.43 µM) and an MIC [13] of 1 µg/mL (≈ 2.86 µM). The MIC [14] was > 8 µg/mL, the MIC [15] was > 8 µg/mL and the MIC [16] was > 8 µg/mL. The MIC [17] was 0.25 µg/mL (≈ 0.716 µM), the MIC [18] was 2 µg/mL (≈ 5.73 µM) and the MIC [19] was > 8 µg/mL. For the same compound, the MIC [20] was > 8 µg/mL, the MIC [21] was 1 µg/mL (≈ 2.86 µM) and the MIC [22] was 1 µg/mL (≈ 2.86 µM). For the same compound, the “BEAS2B cells IC50, Washout” value ([23]; 1 h contact, 24-h washout prior to infection, GM readout) was “ineffective”, the IC50 ([23]; 1 h contact before infection, GM readout after 24 h, read-out: BEAS2B cells IC50, No washout) was 0.054 µg/mL (≈ 0.155 µM) and the IC50 ([23]; 1 h contact, 24-h washout prior to infection, GM readout, read-out: BEAS2B cells IC50, Washout) was > 1 µg/mL. The IC50 [24] was 0.011 µg/mL (≈ 0.0315 µM), the MIC [25] was > 8 µg/mL and the “concentration at which compound precipitated in EUCAST medium” value [26] was “did not”.
